# Earlier results in patent US20040202693A1, “Pharmaceutical compositions releasing their active agents from a buccal or sublingual location to overcome an absorption window problem” (priority 2003, published 2004).
# Where two headings read alike, the source gives them in different places.
# What was measured:
# [1] = oral administration in conventional dosage forms, upper portion of the gastrointestinal tract
absorption [1],SMILES,bioavailability (after oral administration),absorption (after rectal administration),bioavailability (enteric-coated formulation)
rapidly and almost completely absorbed,C[C@H]1c2cccc(O)c2C(=O)C2=C(O)[C@]3(O)C(=O)C(C(N)=O)=C(O)[C@@H](N(C)C)[C@@H]3[C@@H](O)[C@@H]21 [Doxycycline],,,
,O=C(O[C@H]1C[C@H]2CC[C@@H](C1)[N+]21CCCC1)C(O)(c1ccccc1)c1ccccc1 [Trospium chloride],approximately 10%,almost no absorption at all,significant decrease of bioavailability
